Source: patent US4835157A, “Thieno- and furopyrimidine-2,4-dione piperidine derivatives as serotonin antagonists and alpha adrenergic blocking agents” (Ortho Pharmaceutical Corporation, priority 1988, dated 1989)

Columns and labels:
[1] = tested on: alpha1 adrenergic receptor; assay: Alpha1 Blockade in vivo (inhibition of phenylephrine pressor response); design: species or system spontaneously hypertensive rats (SHR); settings: anesthetized, vagotomized SHR; i.v.
Description: The potency of these compounds as alpha1 adrenergic antagonists was determined using the following procedure: adult male spontaneously hypertensive rats (SHR) were anesthetized and bilaterally vagotomized. A carotid artery and jugular vein were cannulated for monitoring mean arterial blood pressure and drug administration, respectively. The percent inhibition of alpha1 adrenergic receptor activation was quantified by measuring pressor responses to phenylephrine before and after antagonist treatment. […] Compounds were tested to the limits of their solubility for intravenous administration.

5HT2 [2] = target: T1, 5HT2 (Rattus norvegicus, UniProt P14842); assay: 5HT2 Blockade in vivo (antagonism of 5HT induced pressor responses); design: Spontaneously hypertensive rats were anesthetized with sodium pentobarbital; from tissue; host or cells: whole animal: anesthetized spontaneously hypertensive rats (vasculature); species or system spontaneously hypertensive rats; settings: rat, iv, read-out: 5-HT-Induced Pressor Response ED50
Description: Antagonism of 5HT induced pressor responses was used to assess 5HT2 blockade in vivo. Spontaneously hypertensive rats were anesthetized with sodium pentobarbital (50 mg/kg, i.p.). The right carotid artery and vein were cannulated for pressure recording and drug injection, respectively. The trachea was cannulated, the rat placed on a respirator and ventilated with room air at 50-60 breaths/minute. Rats were pretreated with prazosin hydrochloride (1 mg/kg, i.v., blous) and pentolinium tartrate (5 mg/kg, i.v., bolus). After 10 minutes equilibration, the rat was challenged with 5HT (100 μg/kg) which elevates mean arterial pressure (MAP) 60-100 mmHg; non-responsive rats were discarded.
After a baseline had been reestablished, bolus injections of 5HT (100 μg/kg, i.v.) were given and the MAP responses were evaluated both pre- and post-drug administration. 5HT challenges were repeated 10 minutes after each dose of antagonist. Up to three cumulative doses of the antagonist were given to a single animal.

[3] = tested on: serotonin-induced platelet aggregation; assay: Platelet Aggregation Assay (serotonin-induced); assay type: cell-based; settings: Platelet; human plasma, serotonin 5 μM
Description: Platelet Aggegation Assay
Human blood was collected into tubes containing sodium citrate. The plasma was separated by centrifugation and was used as the source of platelets. Serotonin (5 μM) was used as the agonist to induce platelet aggregation. A control aggregation curve (as measured by the decrease in absorbance in transmitted light) was obtained in the presence of serotonin and in the absence of test compound. The test compound was added to an identical sample in a cuvette for one minute before addition of serotonin to yield the experimental curve.

serotonin receptors = assay: Inhibition of 5-HTP-Induced Head Twitching; assay type: in vivo; settings: male CD1 mice
Description: Inhibition of 5-HTP-Induced Head Twitching
This test detects compounds with antagonistic activity of serotonin receptors in vivo, and is a modified procedure of Corne, Pickering and Warner, Brit. J. Pharmacol. 20, 106 (1963). Groups of male CD1 mice were fasted overnight but allowed water ad libitum. They were deprived of water during the course of the experiment. The mice were weighed and treated orally or parenterally with the test compound in a dose volume of 10 ml/kg. Doses of test substance were calculated based upon the active compound. Substances for oral administration were dissolved or suspended in a 0.5% aqueous methylcellulose (15 centipoises) vehicle containing 4 ml of Tween 80/l.
A dose of 160 mg/kg of L-5-hydroxytryptophan (5-HTP) was administered i.v. in a dose volume of 5 ml/kg after one hour. The test mouse was restrained in a rodent restrainer that allowed the tail to extend out the back. The tail was then placed in tepid (but not scalding) water for approximately 10 seconds to soften the skin and dilate the tail vein. A 1 ml syringe and 25 gauge (5/8 inch) needle was used to administer the 5-HTP solution into one of the lateral tail veins.
A timer was started after dosing with 5-HTP to the first animal of the test group. […] A head twitch involves the head, neck and ears and has the appearance of an exaggerated pinal reflex. The number of head twitches for each individual vehicle-treated mouse were recorded to establish a historical baseline.
The active compounds in the test block the twitch response (the response rated all or none).

5HT2 [4] = target: T1, 5HT2; assay: Brain Serotonin (5-HT2) Radioreceptor Assay (3H-ketanserin displacement, rat frontal cortex membranes); assay type: binding; design: dissected from brains obtained from female rats; from tissue; host or cells: frontal cortex of female rats (about 150 g), membrane fragments; settings: 15 min at 37° C
Description: Brain Serotonin (5-HT2) Radioreceptor Assay
The test objects of this Example were rat frontal cortex membranes. Mebrane fragments were prepared from the frontal cortex dissected from brains obtained from female rats (≈150 g). […] Compound bound to the receptor site was separated from the remaining unbound compound by vacuum filtration. […] Specific binding was determined by the difference between total counts bound and counts bound in the presence of 10^-6 M methysergide.

[5] = tested on: Serotonin-Induced Smooth Muscle Contractions (rabbit thoracic aorta); assay: Inhibition of Serotonin-Induced Smooth Muscle Contractions (isolated thoracic aorta strips); assay type: cell-based; settings: Oryctolagus cuniculus, 10 min, concentration shifting the serotonin dose curve 10x to the right, 10 min preincubation, read-out: 5-HT-Induced Smooth Muscle Contraction DR10
Description: Inhibition of Serotonin-Induced Smooth Muscle Contractions
The test objects of this Example were canines and rabbits. Rabbits were sacrificed by T-61 injection and the thoracic aorta was removed immediately. The aorta was placed in warmed, oxygenated Krebs-Henseleit buffer. After the tissue was cleaned, a 2-3 mm wide strip was cut helically from each aorta. A strip of approximately 5 cm was suspended in Krebs-Henseleit buffer at 37° C. in a 25 ml tissue bath and the tissues equilibrated at an initial resting tension of 4 g for 90-120 minutes. An initial serotonin dose curve, 0.01-10 μM was then done on each tissue, followed by a 60 minute washout and reequilibration. The test drug was then added for a 10 minute preincubation and another serotonin dose curve was done using 0.01-100 μM.
Results are expressed as DR10 values. This is the concentration of the compound required to shift the serotonin dose curve 10x to the right, i.e., the concentration of antagonist at which the concentration of serotonin required for 50% maximal contraction is increased ten-fold.

[6] = tested on: Spontaneously Hypertensive Rats (SHR); assay: Antihypertensive Activity in Spontaneously Hypertensive Rats (SHR); assay type: in vivo, rat; settings: @ 5 mg/kg p.o., 4 h monitoring
Description: Antihypertensive Activity in Spontaneously Hypertensive Rats (SHR)
Antihypertensive activity was assessed using the following procedure. Adult male SHR were surgically prepared with arterial cannuli under light ether anesthesia and given 60-90 minute post-surgical recovery. Mean arterial pressure (MAP) was continuously monitored via the arterial line. After baseline MAP was recorded, groups of 3-6 SHR received a single dose of drug or vehicle (0.5% methylcellulose) administered by gavage at doses of 1 to 5 mg/kg.MAP was monitored for four hours post-dosing.
Maximal changes in MAP were reported.

5HT1A receptor = target: T2, 5HT1A receptor (Rattus norvegicus, UniProt P19327); assay: Brain Serotonin (5HT1A) radioreceptor Assay (3H-8-OH DPAT displacement, rat frontal cortex membranes); assay type: binding; settings: 3H-8-OH DPAT
T2 construct: Membrane fragments were prepared from prefrontal cortex; from tissue; host or cells: prefrontal/frontal cortex of female rats (about 150 g), membrane fragments
T2 sequence (P19327 1-422): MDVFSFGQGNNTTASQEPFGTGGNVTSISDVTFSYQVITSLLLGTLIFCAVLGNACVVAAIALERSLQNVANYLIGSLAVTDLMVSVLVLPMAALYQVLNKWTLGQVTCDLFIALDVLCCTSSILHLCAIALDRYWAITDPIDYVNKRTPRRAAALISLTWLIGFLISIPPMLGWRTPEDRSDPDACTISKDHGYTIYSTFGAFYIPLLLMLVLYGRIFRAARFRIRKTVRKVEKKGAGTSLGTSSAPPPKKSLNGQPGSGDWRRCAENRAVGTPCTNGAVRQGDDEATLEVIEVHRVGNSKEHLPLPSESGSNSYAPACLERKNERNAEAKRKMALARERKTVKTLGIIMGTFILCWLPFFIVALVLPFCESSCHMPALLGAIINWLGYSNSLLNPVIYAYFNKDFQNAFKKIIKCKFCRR
Description: Brain Serotonin (5HT1A) radioreceptor Assay
The text objects of this procedure were rat frontal cortex membranes. Membrane fragments were prepared from prefrontal cortex disected from brains obtained from female rats (≈150 g). The 5HT1A sites were labeled with ^3 H-8-OH dipropylaminotetralin (8-OH-DPAT). Membrane fragments, ^3 H-8-OH DPAT, TRIS buffer (pH 7.4) and unlabeled compound were incubated for 10 minutes at 37° C. and then for 10 minutes at 4° C. Separation of bound from unbound ^3 H-8-OH DPAT was performed by vacuum filtration on a glass fiber disc. The ability of a compound to compete with ^3 H-8-OH DPAT for binding sites is a measure of the affinity of the compound for the 5HT1A receptor. Specific binding was determined by the difference between total counts bound and the counts bound in the presence of […] 5-hydroxytryptamine.

T1 sequence (P14842 whole entry): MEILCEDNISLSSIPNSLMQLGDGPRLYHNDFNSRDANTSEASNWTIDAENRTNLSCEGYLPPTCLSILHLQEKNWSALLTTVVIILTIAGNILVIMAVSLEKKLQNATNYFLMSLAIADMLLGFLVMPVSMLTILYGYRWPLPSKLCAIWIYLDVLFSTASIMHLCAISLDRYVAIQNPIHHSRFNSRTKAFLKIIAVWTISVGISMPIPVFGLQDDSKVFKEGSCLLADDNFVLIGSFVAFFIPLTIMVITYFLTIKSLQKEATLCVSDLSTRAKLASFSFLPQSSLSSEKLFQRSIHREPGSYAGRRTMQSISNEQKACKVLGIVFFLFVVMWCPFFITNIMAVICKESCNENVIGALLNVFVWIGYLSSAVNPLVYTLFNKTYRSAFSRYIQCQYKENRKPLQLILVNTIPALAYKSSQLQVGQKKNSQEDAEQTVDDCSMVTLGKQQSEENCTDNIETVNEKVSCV

SMILES	Phenylephrine-Induced Pressor Response ED50 [1] [mg/kg]	ED50 (5HT2 [2]) [mg/kg]	IC50 [3] [µM]	Inhibit. of 5-HTP-Head Twitch ED50 (serotonin receptors; 5-HTP 160 mg/kg i.v. after one hour)	IC50 (5HT2 [4]) [µM]	IC (10-fold shift) [5] [µM]	Antihypertensive Activity, p.o., % AMAP (maximal change in mean arterial pressure) [6] [%]	IC50 (5HT1A receptor; rat frontal cortex membranes, pH 7.4, read-out: Brain 5-HT1 Receptor IC50) [µM]	Inhibit. of 5-HTP-Head Twitch (result in words) (serotonin receptors; @ 10 (mg/kg, p.o.))	inhibition at 1 µM (5HT1A receptor; @ 1 μM, read-out: Brain 5-HT1 Receptor % displaced (% inhibition)) [%]
O=C(c1ccc(F)cc1)C1CCN(CCn2c(=O)[nH]c3ccsc3c2=O)CC1 [Example 1, 3-[2-[4-(4-Fluorobenzoyl)piperidin-1-yl]ethyl]thieno[3,2-d]pyrimidine-2,4-dione]	> 10	0.009	0.034	2.1 mg/kg, p.o.	0.0006	0.0063	-10	16	–	–
CC(=O)n1c(=O)n(CCN2CCC(C(=O)c3ccc(F)cc3)CC2)c(=O)c2ccsc21 [Example 3, 1-Acetyl-3-[2-[4-(4-fluorobenzoyl)piperidin-1-yl]ethyl]thieno[2,3-d]pyrimidine-2,4-dione]	10.0	0.025	8	–	0.0024	0.0229	-4	–	Inact.	13
